The values that follow come from patent US20040091407A1, “Novel process for preparing crystalline particles” (priority 2000, published 2004).

The series in a line: Particle size measurement using a Malvern Particle Sizer S. As to conditions: crystalline particles of the calcium salt monohydrate prepared by sonocrystallisation. The format is physicochemical. The protocol: Particle size of the two samples were measured using a Malvern Particle Sizer S. The (v0.5) values are as shown below: […]

With `C/C(=C/C(=O)c1ccccc1)N[C@@H](Cc1ccc(OCCc2nc(-c3ccccc3)oc2C)cc1)C(=O)[O-].C/C(=C/C(=O)c1ccccc1)N[C@@H](Cc1ccc(OCCc2nc(-c3ccccc3)oc2C)cc1)C(=O)[O-].[Ca+2]` [Sample 1, calcium salt of (2S)-2-{[(Z)-1-methyl-3-oxo-3-phenyl-1-propenyl]amino}-3-{4-[2-(5-methyl-2-phenyl-1,3-oxazol-4-yl)ethoxy]phenyl}propanoic acid], the “D(v,0.5) particle size” value worked out at 32.2 microns. The result for `C/C(=C/C(=O)c1ccccc1)N[C@@H](Cc1ccc(OCCc2nc(-c3ccccc3)oc2C)cc1)C(=O)[O-].C/C(=C/C(=O)c1ccccc1)N[C@@H](Cc1ccc(OCCc2nc(-c3ccccc3)oc2C)cc1)C(=O)[O-].[Ca+2]` [Sample 2, calcium salt of (2S)-2-{[(Z)-1-methyl-3-oxo-3-phenyl-1-propenyl]amino}-3-{4-[2-(5-methyl-2-phenyl-1,3-oxazol-4-yl)ethoxy]phenyl}propanoic acid] reads 42.3 microns.
